According to ChEMBL document CHEMBL1201862, “PubChem BioAssay data set” (2004):
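Growth conditions: 96-well plates. Treatment: test compound, 48 hours, 5 concentrations. Analysis: linear interpolation between bracketing concentrations; unreached endpoints set to highest concentration. GI50 marks 50% less growth.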 The source made the active and inactive calls. Cut-off read from the data, not from the text of the source: active = GI50 up to about 1.1 µM and inactive = higher.

Key:
Test in all cases: NCI-60 cell line screen, 48 h
[1] = system: SNB-75
[2] = system: HOP-62
[3] = system: U-251
[4] = system: HT-29
[5] = system: KM12
[6] = system: HOP-92
[7] = system: M19-MEL
[8] = system: EKVX
[9] = system: RXF 393
[10] = system: NCI-H522
[11] = system: NCI-H460
[12] = system: UO-31
[13] = system: CCRF-CEM
[14] = system: NCI-H226
[15] = system: Malme-3M
[16] = system: OVCAR-5
[17] = system: M14

Measured: GI50

O=C(Nc1ccc(Cl)c(C(F)(F)F)c1)C(=O)C(C(=O)/C=C/c1ccccc1)C1OC(=O)c2ccccc21 (stereo not drawn)
inactive: [1] > 100 µM | [2] > 100 µM | [3] 51.9 µM | [4] > 100 µM | [5] > 100 µM | [6] > 100 µM | [7] 84.9 µM | [8] > 100 µM | [9] 93.5 µM | [10] 63.1 µM | [11] > 100 µM | [12] > 100 µM | [13] > 100 µM | [14] > 100 µM | [15] > 100 µM | [16] > 100 µM | [17] > 100 µM

O=C1C2Nc3ccccc3SC2C(=O)N1c1ccccc1C(F)(F)F (stereo not drawn)
inactive: [2] 25.4 µM | [3] 19.1 µM | [4] 26.4 µM | [5] 10.1 µM | [6] 25 µM | [7] 46.9 µM | [8] 54.8 µM | [9] 7.45 µM | [10] 15.3 µM | [11] 32.7 µM | [12] 38.2 µM | [13] 15.2 µM | [14] 43.1 µM | [15] 19.7 µM | [16] > 100 µM | [17] 16 µM

[O-]c1c2c(nn1-c1ccc(Cl)cc1)c1ccccc1c[n+]2Cc1ccccc1
inactive: [1] 32.2 µM | [2] > 100 µM | [3] > 100 µM | [4] > 100 µM | [5] > 100 µM | [7] > 10 µM | [8] > 100 µM | [9] 27 µM | [10] 58.9 µM | [11] > 100 µM | [12] > 100 µM | [13] > 100 µM | [14] > 100 µM | [15] 45.4 µM | [16] > 100 µM | [17] > 100 µM

N=C(N)N/N=C(/c1nc2ccc([N+](=O)[O-])cc2[nH]c1=O)C(O)c1ccc([N+](=O)[O-])cc1 (stereo not drawn)
inactive: [1] 86.1 µM | [2] 37.8 µM | [3] 67.3 µM | [4] 54.1 µM | [5] 36.1 µM | [6] > 100 µM | [7] > 100 µM | [9] > 100 µM | [10] 4.54 µM | [11] 51.3 µM | [12] 3.03 µM | [13] > 100 µM | [14] > 100 µM | [15] 83.8 µM | [16] > 100 µM | [17] 79.3 µM

O=C1[C@@H]2C(c3ccccc3[N+](=O)[O-])=[N+](c3ccccc3)O[C@@H]2C(=O)N1c1ccc(Cc2ccc(N3C(=O)[C@H]4C(c5ccccc5[N+](=O)[O-])=[N+](c5ccccc5)O[C@H]4C3=O)cc2)cc1
inactive: [1] > 100 µM | [2] > 100 µM | [3] > 100 µM | [4] > 100 µM | [5] > 100 µM | [6] 49 µM | [7] > 100 µM | [8] > 100 µM | [9] > 100 µM | [10] > 100 µM | [11] > 100 µM | [12] > 100 µM | [13] > 100 µM | [14] 74.8 µM | [15] 27.7 µM | [16] > 100 µM | [17] 16.4 µM

COc1cccc(NC(=O)CC(=O)N2NC(c3ccccc3)C(/N=N/c3cccc(C(=O)O)c3)C2=O)c1 (stereo not drawn)
inactive: [1] > 100 µM | [2] > 100 µM | [3] > 100 µM | [4] > 100 µM | [5] 39.4 µM | [6] > 100 µM | [7] > 100 µM | [8] > 100 µM | [9] 49.5 µM | [11] > 100 µM | [12] 27.5 µM | [14] > 100 µM | [15] > 100 µM | [16] > 100 µM | [17] > 100 µM

C/C(=N/NC(N)=S)C(CN1CCOCC1)C(C1=C(O)c2ccccc2OC1)c1ccccc1 (stereo not drawn)
inactive: [1] 78 µM | [3] > 100 µM | [4] > 100 µM | [5] > 100 µM | [6] 71.3 µM | [7] > 100 µM | [8] > 100 µM | [9] > 100 µM | [10] > 100 µM | [11] > 100 µM | [12] > 100 µM | [13] 60.7 µM | [14] > 100 µM | [15] 69 µM | [16] > 100 µM | [17] > 100 µM

CC(=O)OC1[C@H]2c3cc4c(cc3CN3CCC(C[C@@H]1OC(C)=O)C23)OCO4 (stereo partly drawn)
inactive: [1] > 75 µM | [2] > 75 µM | [3] > 75 µM | [4] > 75 µM | [5] > 75 µM | [7] > 75 µM | [8] > 75 µM | [9] > 75 µM | [10] > 75 µM | [11] > 75 µM | [12] > 75 µM | [13] > 75 µM | [14] 8.13 µM | [15] > 75 µM | [17] > 75 µM

COc1ccc(NCC#N)cc1
inactive: [1] 76.2 µM | [3] > 100 µM | [4] > 100 µM | [5] > 100 µM | [6] > 100 µM | [7] > 100 µM | [8] > 100 µM | [9] > 100 µM | [10] > 100 µM | [11] > 100 µM | [12] > 100 µM | [13] > 100 µM | [15] > 100 µM | [16] > 100 µM | [17] > 100 µM

Cn1cc2c(n1)c(N/N=C/c1ccccc1)nn1nnnc21
inactive: [1] > 100 µM | [2] > 100 µM | [3] > 100 µM | [4] > 100 µM | [6] > 100 µM | [7] > 100 µM | [8] > 100 µM | [9] > 100 µM | [11] > 100 µM | [12] > 100 µM | [13] > 100 µM | [14] > 100 µM | [15] > 100 µM | [17] > 100 µM

O=C(CSc1nnc(Cc2ccccc2)o1)Nc1ccc([N+](=O)[O-])cc1
inactive: [1] > 100 µM | [2] > 100 µM | [3] > 100 µM | [4] 48 µM | [5] > 100 µM | [7] > 100 µM | [9] > 100 µM | [10] 82.2 µM | [11] > 100 µM | [12] 74.1 µM | [13] > 100 µM | [14] > 100 µM | [15] > 100 µM | [16] > 100 µM | [17] > 100 µM

CS/C(=C(\S)c1ccccc1)c1ccccc1
inactive: [1] > 100 µM | [2] > 100 µM | [3] > 100 µM | [4] > 100 µM | [5] > 100 µM | [6] > 100 µM | [7] > 100 µM | [8] > 100 µM | [9] > 91.2 µM | [10] > 100 µM | [11] > 100 µM | [12] > 100 µM | [14] > 100 µM | [15] > 100 µM | [16] > 100 µM | [17] > 100 µM
